Measured values as given in patent US11384078B2, “5,6-fused-bicyclic compounds and compositions for the treatment of parasitic diseases” (NOVARTIS AG, priority 2017, dated 2022).

Tests used:
Type in all cases: cell-based
[1] = tested on: Leishmania donovani axenic amastigote; test: In vitro assay for growth inhibition of Leishmania donovani axenic amastigote (Cell TiterGlo luminescence); conditions: Leishmania donovani, L. donovani axenic amastigotes in vitro; read-out: L. donovani amastigotes EC50
Method in brief: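 Compound-treated wells received 9600 axenic amastigotes in RPMI 1640-based medium at pH 5.5 (37 °C, 5% CO2). Growth measured as ATP luminescence (CellTiter-Glo) after 2-day incubation; DMSO and reference compounds served as controls.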

[2] = tested on: L. donovani HU3 strain in mouse peritoneal macrophages; test: Assay for inhibition of parasitemia of Leishmania donovani in mouse macrophages (SYBR Green nuclei count, high-content imaging); conditions: Leishmania donovani, Peritoneal macrophage, L. donovani in mouse peritoneal macrophages; read-out: L. donovani in Mouse Macrophages EC50
Method in brief: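 Parasite numbers were counted from SYBR Green-stained nuclei imaged by high-content microscopy after paraformaldehyde fixation and Triton permeabilization. Before this, compound was applied for 5 days at 37° C to BALB/c peritoneal macrophages (2×10^4/well) that had been exposed 24 h to 4×10^5 L. donovani HU3 amastigotes harvested from infected mouse spleens.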

[3] = tested on: Trypanosoma cruzi amastigotes cultured in 3T3 fibroblast cells; test: Assay for growth inhibition of kinetoplastid parasite Trypanosoma cruzi (beta-galactosidase Tulahuen strain, CPRG readout); conditions: Trypanosoma cruzi, Fibroblast, T. cruzi amastigotes in 3T3 fibroblast cells; read-out: Buckner infectious T. cruzi EC50
Method in brief: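 3T3 fibroblasts (1,000 cells/well) plated overnight, treated with compound in DMSO, then infected with 10,000 Lac-Z-expressing Tulahuen trypomastigotes. After 6 days, 0.6 mM CPRG with 0.6% NP-40 added for 2 h at room temperature; absorbance gives relative intracellular amastigote numbers. Benznidazole and nifurtimox serve as positive controls.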

[4] = tested on: Trypanosoma brucei brucei (Lister 427) strain; test: Assay for growth inhibition against Trypanosoma brucei brucei (Cell TiterGlo ATP luminescence); conditions: Trypanosoma brucei, T. brucei brucei (Lister 427); read-out: T. Brucei (HAT) EC50
Method in brief: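 Growth read-out is cellular ATP by CellTiter-Glo luminescence, measured 30 min after reagent addition, following 2-day incubation at 37 °C in CO2. Parasites (10,000/mL, HMI-9 plus 10% FBS and 10% serum plus) faced 10 threefold dilutions in duplicate; IC50 taken as 50% growth inhibition versus untreated.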

Structure (SMILES)	EC50 [1] [nM]	EC50 [2] [nM]	EC50 [3] [nM]	EC50 [4] [nM]
O=C1CCC2(CN(c3cnc4nn(-c5cc(NC(=O)N6CC(F)C6)ccc5F)cc4c3)C2)N1 [Compound 245, 3-fluoro-N-[4-fluoro-3-(5-{6-oxo-2,5-diazaspiro[3.4]octan-2-yl}-2H-pyrazolo[3,4-b]pyridin-2-yl)phenyl}azetidine-1-carboxamide]	311	1490	951	62
O=C(Nc1ccc(F)c(-n2cc3cc(N4CC5(CCOC5)C4)cnc3n2)c1)N1CC2(CCOC2)C1 [Compound 246, N-[4-fluoro-3-(5-{6-oxa-2-azaspiro[3.4]octan-2-yl}-2H-pyrazolo[3,4-b]pyridin-2-yl)phenyl}-6-oxa-2-azaspiro[3.4]octane-2-carboxamide]	535	379	2840	396
CC(C)(C)OC(=O)N1CCCC1c1cnc2nn(-c3cc(NC(=O)N4CCC4)ccc3F)cc2c1 (centres unmarked) [Compound 247, tert-butyl 2-(2-{5-[(azetidine-1-carbonyl)amino]-2-fluorophenyl}-2H-pyrazolo[3,4-b]pyridin-5-yl)pyrrolidine-1-carboxylate]	40	23	14	5
O=C(Nc1ccc(F)c(-n2cc3cc(N4CCC5(CC4)COC5)cnc3n2)c1)N1CC(F)C1 [Compound 248, 3-fluoro-N-[4-fluoro-3-(5-{2-oxa-7-azaspiro[3.5]nonan-7-yl}-2H-pyrazolo[3,4-b]pyridin-2-yl)phenyl]azetidine-1-carboxamide]	117	8	11	5
O=C(Nc1ccc(F)c(-n2cc3cc(NC4CC4)cnc3n2)c1)N1CC(F)C1 [Compound 249, N-{3-[5-(cyclopropylamino)-2H-pyrazolo[3,4-b]pyridin-2-yl]-4-fluorophenyl}-3-fluoroazetidine-1-carboxamide]	864	125	110	5
O=C(Nc1ccc(F)c(-n2cc3cc(N4CCN(CC(F)(F)F)CC4)cnc3n2)c1)N1CCC1 [Compound 250, N-(4-fluoro-3-{5-[4-(2,2,2-trifluoroethyl)piperazin-1-yl]-2H-pyrazolo[3,4-b]pyridin-2-yl}phenyl)azetidine-1-carboxamide]	43	10	1	5
O=C(Nc1ccc(F)c(-n2cc3cc(Br)cnc3n2)c1)N1CC2(CC2)C1 [Compound 254, N-(3-(5-bromo-2H-pyrazolo[3,4-b]pyridin-2-yl)-4-fluorophenyl)-5-azaspiro[2.3]hexane-5-carboxamide]	91	673	50	259
CC1(C)CN(c2cnc3nn(-c4cc(NC(=O)N5CC(F)C5)ccc4F)cc3c2)C1 [Compound 255, N-{3-[5-(3,3-dimethylazetidin-1-yl)-2H-pyrazolo[3,4-b]pyridin-2-yl]-4-fluorophenyl}-3-fluoroazetidine-1-carboxamide]	42	28	15	5
O=C(Nc1ccc(F)c(-n2cc3cc(N4CC5(CC5)C4)cnc3n2)c1)N1CCC1 [Compound 257, N-(3-(5-(5-azaspiro[2.3]hexan-5-yl)-2H-pyrazolo[3,4-b]pyridin-2-yl)-4-fluorophenyl)azetidine-1-carboxamide]	14	7	2	4
O=C(Nc1ccc(F)c(-n2cc3cc(N4CC5(CC5)C4)cnc3n2)c1)N1CC(F)(F)C1 [Compound 258, N-[3-(5-{5-azaspiro[2.3]hexan-5-yl}-2H-pyrazolo[3,4-b]pyridin-2-yl)-4-fluorophenyl}-3,3-difluoroazetidine-1-carboxamide]	23	39	12	28
O=C(Nc1ccc(F)c(-n2cc3cc(N4CC5(CC5)C4)cnc3n2)c1)N1CC[C@@H](F)C1 [Compound 259, (3R)-N-[3-(5-{5-azaspiro[2.3]hexan-5-yl}-2H-pyrazolo[3,4-b]pyridin-2-yl)-4-fluorophenyl}-3-fluoropyrrolidine-1-carboxamide]	12	16	3	4
CN(C)c1cnc2nn(-c3cc(NC(=O)N4CC5(CC5)C4)ccc3F)cc2c1 [Compound 260, N-{3-[5-(dimethylamino)-2H-pyrazolo[3,4-b]pyridin-2-yl]-4-fluorophenyl}-5-azaspiro[2.3]hexane-5-carboxamide]	221	224	49	43
O=C(Nc1ccc(F)c(-n2cc3cc(N4C5COCC4C5)cnc3n2)c1)N1CC(F)C1 [Compound 263, 3-fluoro-N-[4-fluoro-3-(5-{3-oxa-6-azabicyclo[3.1.1]heptan-6-yl}-2H-pyrazolo[3,4-b]pyridin-2-yl)phenyl]azetidine-1-carboxamide]	12	68	45	10
O=C(Nc1ccc(F)c(-n2cc3cc(C4CCN4)cnc3n2)c1)N1CC(F)C1 (centres unmarked) [Compound 264, N-{3-[5-(azetidin-2-yl)-2H-pyrazolo[3,4-b]pyridin-2-yl]-4-fluorophenyl}-3-fluoroazetidine-1-carboxamide]	357	13700	480	384
O=C(Nc1ccc(F)c(-n2cc3cc(N4CC(C(F)(F)F)C4)cnc3n2)c1)N1CC(F)C1 [Compound 265, 3-fluoro-N-(4-fluoro-3-(5-(3-(trifluoromethyl)azetidin-1-yl)-2H-pyrazolo[3,4-b]pyridin-2-yl)phenyl)azetidine-1-carboxamide]	3	4	2	1
N#CC1CN(c2cnc3nn(-c4cc(NC(=O)N5CC(F)C5)ccc4F)cc3c2)C1 [Compound 266, N-{3-[5-(3-cyanoazetidin-1-yl)-2H-pyrazolo[3,4-b]pyridin-2-yl]-4-fluorophenyl}-3-fluoroazetidine-1-carboxamide]	8	29	65	5
CC(=O)N1CCC1c1cnc2nn(-c3cc(NC(=O)N4CC(F)C4)ccc3F)cc2c1 (centres unmarked) [Compound 267, N-(3-(5-(1-acetylazetidin-2-yl)-2H-pyrazolo[3,4-b]pyridin-2-yl)-4-fluorophenyl)-3-fluoroazetidine-1-carboxamide]	1710	13800	9400	81
O=C(Nc1ccc(F)c(-n2cc3cc(N4CCNCC4)cnc3n2)c1)N1CC(F)C1 [Compound 270, 3-fluoro-N-{4-fluoro-3-[5-(piperazin-1-yl)-2H-pyrazolo[3,4-b]pyridin-2-yl]phenyl}azetidine-1-carboxamide]	233	2170	1700	79
O=C(Nc1ccc(F)c(-n2cc3cc(N4CC(C(F)(F)F)C4)cnc3n2)c1)N1CCC1 [Compound 274]	2	3	1	1
O=C(Nc1ccc(F)c(-n2cc3cc(N4CC(C(F)(F)F)C4)cnc3n2)c1)N1CC[C@@H](F)C1 [Compound 275]	3	3	1	1
